# Reference: publication PMC4833640 (Journal of Medicinal Chemistry, 2016)
# What was measured:
# [1] = physchem; conditions: measured pKa values
# [2] = Colorimetric hydrogen-bond assay with pyrazinone sensor; format: physicochemical; conditions: blue-shift of λmax of the sensor, compared with carboxylic acid 1
# [3] = reason why data were considered unreliable
# [4] = 24 h incubation, aqueous buffer pH 7.4
Structure (SMILES),pKa [1],also measured
"O=C(CCc1ccccc1)NO [Compound 2, N-(Hydroxy)-3-phenylpropanamide]",> 8,
"CC(=O)N(O)CCc1ccccc1 [Compound 3, N-Hydroxy-N-phenethylacetamide]",> 8,
"CONC(=O)CCc1ccccc1 [Compound 4, N-Methoxy-3-phenylpropanamide]",> 8,
"CC(=O)NOCCc1ccccc1 [Compound 5, N-Phenethoxyacetamide]",> 8,
"NS(=O)(=O)CCc1ccccc1 [Compound 10, 2-Phenylethane-1-sulfonamide]",> 8,
"CS(=O)(=O)NCCCc1ccccc1 [Compound 11, N-(3-Phenylpropyl)methanesulfonamide]",> 8,
"CC(=O)NC(=O)NCc1ccccc1 [Compound 15, N-(Benzylcarbamoyl)acetamide]",> 8,
"c1ccc(CCc2nnn[nH]2)cc1 [Compound 16, 5-Phenethyl-1H-tetrazole]",,hydrogen-bond (HB) interaction with pyrazinone sensor [2]: significantly stronger HB interactions than the corresponding carboxylic acid
"S=c1[nH]c(CCc2ccccc2)no1 [Compound 22, 3-Phenethyl-1,2,4-oxadiazole-5(4H)-thione]",< 4,
"O=c1c(O)c(Cc2ccccc2)c1=O [Compound 30, 3-Benzyl-4-hydroxycyclobut-3-ene-1,2-dione]",< 4,
"O=c1c(O)c(NCc2ccccc2)c1=O [Compound 31, 3-(Benzylamino)-4-hydroxycyclobut-3-ene-1,2-dione]",< 4,
"Oc1c(F)cc(Cc2ccccc2)cc1F [Compound 32, 4-Benzyl-2,6-difluorophenol]",,PAMPA assay observation on the donor plate [3]: high nonspecific binding
"Oc1c(F)ccc(Cc2ccccc2)c1F [Compound 33, 3-Benzyl-2,6-difluorophenol]",,PAMPA assay observation on the donor plate [3]: compound precipitation
"Oc1ccccc1SCc1ccccc1 [Compound 34, 2-(Benzylthio)phenol]",,detection after incubation in aqueous buffer (stability) [4]: not detected after the 24 h incubation in aqueous buffer
